Measurements: US20070015813A1, “Treatment of protein folding disorders” (QUEEN'S UNIVERSITY AT KINGSTON, priority 2005, published 2007)

How the values were obtained:
Aβ1-40 [1] = molecular target: T1, Aβ1-40 (Homo sapiens, UniProt P05067); assay: Kinetic Thioflavin T (ThT) aggregation assay of Aβ1-40; format: biochemical; details: 20 μM Aβ1-40, 4 μM ThT, pH 7.4, 37° C., kinetic ThT assay
T1 construct: Aβ^1-40 (AnaSpec, San Jose, Calif., lots 14212, 34862 and 34889); purchased AnaSpec, San Jose, Calif
T1 sequence (P05067 672-711 limits assumed): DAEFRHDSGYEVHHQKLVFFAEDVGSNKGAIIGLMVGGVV
Method: Aβ^1-40 (1.0 mg) was pre-treated in a 1.5 mL microfuge tube with 1,1,1,3,3,3-hexafluoroisopropanol (HFIP, 1 mL) and sonicated for 20 min. to disassemble any pre-formed Aβ aggregates. The HFIP was removed with a stream of argon and the Aβ dissolved in Tris base (5.8 mL, 20 mM, pH 10.5). The pH was adjusted to 7.4 with concentrated HCl and the solution filtered using a syringe filter (0.2 μm). This solution was used for circular dichroism studies or diluted with an equal volume of 8 μM Thioflavin T (ThT) in Tris-HCl (20 mM, pH 7.4, 300 mM NaCl) for the ThT aggregation assay.
(§1) Aliquots (200 μL) of Aβ^1-40, Aβ^1-42, tau441 or α-synuclein with ThT or ThS were added to wells of a black polystyrene 96-well plate, followed by 2 μL of a compound in DMSO (various concentrations), or DMSO alone (controls). For α-synuclein, sodium dodecyl sulfate solution (2.0 μL, 30 mM) was also added to each well to induce aggregation. Incubations were performed in triplicate and were taken to contain 20 μM Aβ^1-40 or Aβ^1-42, 6 μM tau441 or 4 μM α-synuclein. Plates were covered with clear polystyrene lids and incubated at 37° C. in a GENios microplate reader obtained from Tecan Group Limited, Mannedorf, Zurich. For Aβ^1-40, tau441 and α-synuclein, fluorescence readings (λex=450 nm, λem=480 nm) were taken every 15 min., after first shaking at high intensity for 15 sec. and allowing to settle for 10 sec. before each reading. For Aβ^1-42, readings were taken every 5 min.
(§2) The absorbance of each compound was measured under the conditions used during testing, though on ten times the scale (2 mL), to ensure no significant quenching interfered with the assay. This step was also used to identify whether compounds were completely soluble under testing conditions.
FIG. 1 depicts the inhibition of Aβ^1-40 aggregation, as measured by Thioflavin T (ThT) fluorescence, by directly-linked 3,3′-bis-indolyl compounds 0c-i (A), other bis-indoles (B), aza-indole-containing compounds (C), indole-phenols (D), indole-5-carboxylic acid-containing bi-aromatics (E), and naphthol-containing bi-aromatics (F). Aggregation conditions: 20 μM Aβ^1-40 incubated in covered black 96-well polystyrene microplates with 4 μM ThT, pH 7.4, Tris-HCl (20 mM), 150 mM NaCl, 1% DMSO. Compound concentrations are 200 μM (A,B, except where otherwise noted), 100 μM (E), 20 μM (F), or as indicated (C,D). Plates heated at 37° C. in Tecan Genios microplate reader. All incubations performed in triplicate. Prior to experiment, Aβ^1-40 pretreated with 1,1,1,3,3,3-hexafluoroisopropanol (HFIP). Fluorescence readings: fluorescence measured every 15 min. (λex=450 nm, λem=480 nm) after shaking for 15 sec. and pausing 10 sec. before taking measurement. Values are the mean of three replicates. Error bars, omitted for clarity in (B), represent standard deviation of the mean.

Aβ1-42 = molecular target: T2, Aβ1-42 (Homo sapiens, UniProt P05067); assay: Kinetic Thioflavin T (ThT) aggregation assay of Aβ1-42; format: biochemical; details: 20 μM Aβ1-42, kinetic ThT assay
T2 construct: Aβ^1-42 (AnaSpec, lot 45685); purchased AnaSpec
T2 sequence (P05067 672-713 limits assumed): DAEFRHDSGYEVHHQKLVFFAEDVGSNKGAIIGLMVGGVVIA
Method: Aβ^1-42 (1.0 mg) was either pretreated with HFIP in the same manner as Aβ^1-40 or this step was omitted. After removing HFIP, when appropriate, Aβ^1-42 was dissolved in 1% NH3 (aq.) (200 μL) and sonicated for 1 min. The solution was diluted with Tris-HCl (5.7 mL, 20 mM, pH 7.4), the pH adjusted to 7.4 with concentrated HCl (aq.) and the solution filtered using a syringe filter (0.2 μm). Prior to use in the ThT aggregation assay, the solution was diluted with an equal volume of 8 μM Thioflavin T (ThT) in Tris-HCl (20 mM, pH 7.4, 300 mM NaCl).
as §1, §2
FIG. 7 depicts inhibition of Aβ^1-42 aggregation by various synthesized bi-aromatic compounds and positive controls morin (Ono K, Yoshiike Y, Takashima A, Hasegawa K, Naiki H, Yamada M. 2003. J Neurochem 87:172-81) and RS-0406 (Walsh D M, Townsend M, Podlisny M B, Shankar G M, Fadeeva J V, Agnaf O E, Hartley D M, Selkoe D J. 2005. J Neurosci 25:2455-62) in the kinetic ThT assay. Same conditions as for Aβ^1-40, FIG. 1. Compound concentrations were 100 μM in (A), 20 μM in (B), except for RS-0406, which was tested at 100 μM, and 20 μM in (C).

Aβ1-40 [2] = molecular target: T1, Aβ1-40; assay: Circular dichroism studies of Aβ1-40; format: biochemical; details: 40 μM Aβ1-40, 200 μM compound, pH 7.4, 37° C.
Method: Aliquots (220 μL) of pretreated Aβ^1-40 (40 μM in 20 mM Tris-HCl, pH 7.4) were added directly to 1 mm quartz circular dichroism (CD) cells, followed by 2.2 μL compound (of varying concentration) in methanol or methanol alone (controls). Solutions were incubated at 37° C. for up to 6 days. CD scans were performed on a J-810 spectropolarimeter (obtained from Jasco Corporation, Tokyo, Japan) between 190 and 250 nm, with a resolution of 0.1 nm and bandwidth of 1 nm. Ten scans were obtained for each reading. Spectra had background CD of the buffer subtracted and were left unsmoothed. Readings were performed at 37° C.
FIG. 6 depicts circular dichroism (CD) of Aβ^1-40 alone (A) and in the presence of 0j (B) and morin (C). Conditions: 40 μM Aβ^1-40, 200 μM compound (B,C), pH 7.4, Tris-HCl (20 mM), 1% MeOH. Prior to experiment, Aβ^1-40 pretreated with 1,1,1,3,3,3-hexafluoroisopropanol (HFIP).

[3] = test system: patients with mild to moderate Alzheimer's disease (AD); assay: Phase IV double-blind randomized placebo-controlled clinical trial of L-tryptophan (Trp); format: in vivo, human
Method: A phase IV clinical trial of L-tryptophan (Trp) was carried out to evaluate the amino acid's effect on cognitive abilities in patients with mild to moderate Alzheimer's disease (AD). An earlier trial has been performed which studied Trp administration in patients suffering from AD [Bentham, P W. International Clinical Psychopharmacology, 1990, 5: 261-72]. The present trial expects the possible binding of Trp to the HHQK region of Aβ [D Giulian et al. (1998). Journal of Biological Chemistry 273:29719-26] and subsequent disruption of Aβ plaque formation, whereas the earlier trial was based on neurotransmitter replacement therapy. By administering Trp, levels of its metabolite […], better known as serotonin, were expected to increase, thereby countering deficits of the neurotransmitter experienced by those suffering from AD [Siegel, G J; Agranoff, B W; Albers, R W; Molinoff, P B, Basic Neurochemistry. Fifth ed. 1994, New York: Raven Press, 1054 pp]. Also providing motivation for the trial may have been earlier accounts that Trp was seen to benefit elderly patients with mental disorders [Shaw, D M; Tidmarsh, S F; Karajgi, B M; Sweeney, E A; Williams, S; Elameer, M; Twining, C. British Journal of Psychiatry, 1981, 139: 580-2, Lehmann, J; Persson, S; Walinder, J; Wallin, L. Acta Psychiatrica Scandinavica, 1981, 64: 123-31].
Twelve patients were enrolled in the current clinical trial. Patients were administered 1 g Trp (n=8) or placebo (n=4) twice a day for six months, and their cognitive abilities were assessed, using standardized tests, at baseline, three months and six months. All enrollment and testing was carried out at the Kingston General Hospital, Kingston, Ontario, Canada, under the supervision of the principal investigator, D. F. Weaver, M.D., Ph.D (the protocol is attached as Appendix A). The primary endpoint of the double-blind trial was to determine whether patients receiving Trp outperformed the controls, either by experiencing an improvement in cognition or a reduction in deterioration in cognitive abilities relative to the placebo group.
Eligible participants were those who met the clinical criteria of probable Alzheimer's disease as described in the Diagnostic and Statistical Manual of Mental Disorders, fourth edition (DSM-IV) [Anonymous, Diagnostic and Statistical Manual of Mental Disorders, 4th Edition (DSM-IV). 1994, Washington, D.C.: American Psychiatric Association] and in the National Institute of Neurologic and Communicative Disorders and Stroke and the Alzheimer's Disease Related Disorders Association (NINCDS-ADRDA) [McKhann, G; Drachman, D; Folstein, M; Katzman, R; Price, D; Stadlan, E M. Neurology, 1984, 34: 939-44]. Inclusion criteria also included: mild to moderate severity of dementia, as reflected by a Mini-Mental State Examination (MMSE) [Folstein, M F; Folstein, S E; McHugh, P R. J Psychiatr Res, 1975, 12: 189-98] score of 14 to 26; minimum one-year duration of symptoms; minimum age of 50 years; living at home or in an institution provided they had caregivers capable of attending each clinic visit and ensuring the administration of medication; able to perform the psychometric tests required; reasonably good nutritional status; vital signs (blood pressure and heart rate in sitting and standing positions), urinalysis, physical examination, and neurological evaluation must yield results within normal limits or determined as not clinically significant by the study physician for the patient's age and sex.
This study was a 6-month, double-blind randomized trial in which eligible participants were randomly assigned to receive either Trp (1000 mg, twice daily) or an identical-appearing placebo. Recruiters were unaware of the assignment. […]

[4] = test system: patients suffering from AD; details: ten patients, three months; cited from earlier work
[5] = test system: patients with advanced senile dementia; details: daily Trp administration (24 mg/kg); cited from earlier work
patients with dementia = details: one month, once daily dosing, ratings of behaviour and functional abilities; cited from earlier work
[6] = Trp 1 g twice a day (n = 8), 6 months, negative change indicates improvement
[7] = Trp 1 g twice a day (n = 8), 6 months, positive change indicates improvement
[8] = Trp (n = 8) vs. placebo (n = 4), 3 months
[9] = Trp (n = 8) vs. placebo (n = 4), 6 months

Question: Which results are given for `O=C(O)c1ccc2[nH]cc(-c3c[nH]c4ccc(O)cc34)c2c1` [0j, 3-(5-Hydroxy-indol-3-yl)-indole-5-carboxylic Acid]?
Answer: inhibition of Aβ1-40 aggregation, as measured by Thioflavin T (ThT) fluorescence (Aβ1-40 [1]): inhibition; inhibition of Aβ1-42 aggregation, as measured by ThT fluorescence (Aβ1-42): inhibiting aggregation; random coil (RC)→β-sheet transition of Aβ1-40 by circular dichroism (Aβ1-40 [2]): inhibited to a greater extent

Question: For `N[C@@H](Cc1c[nH]c2ccccc12)C(=O)O` [Trp, L-tryptophan], which “ADAS-Cog, mean (SE) change from baseline after 3 months” value ([3]; Trp 1 g twice a day (n = 8), 3 months, negative change indicates improvement) is on record?
Answer: −0.8 (0.9)

Question: And the “MMSE, mean (SE) change from baseline after 3 months” value ([3]; Trp 1 g twice a day (n = 8), 3 months, positive change indicates improvement)?
Answer: 0.8 (0.4)

Question: And the “ADAS-Cog, mean (SE) change from baseline after 6 months” value [3, 6]?
Answer: −2.8 (1.4)

Question: And the “FAQ, mean (SE) change from baseline after 6 months” value [3, 6]?
Answer: 3.2 (2.0)

Question: And the “NPI, mean (SE) change from baseline after 6 months” value [3, 6]?
Answer: 3 (3)

Question: What about the “Clock-drawing, mean (SE) change from baseline after 6 months” value [3, 7] of the same molecule?
Answer: 1.1 (0.4)

Question: And the “DAD, mean (SE) change from baseline after 6 months” value [3, 7]?
Answer: 1.5 (1.8)

Question: What about the “MMSE, mean (SE) change from baseline after 6 months” value [3, 7] of the same molecule?
Answer: 1.8 (0.5)

Question: What about the “ADCS-CGIC, mean (SE) score at 6 months” value ([3]; Trp 1 g twice a day (n = 8), score at 6 months, not change from baseline, lower score indicates improvement) of the same molecule?
Answer: 3.6 (0.3)

Question: And the “adverse events reported by patients” value ([3]; Trp 1 g twice a day, 6 months)?
Answer: No adverse events

Question: What about the “ADAS-Cog, treatment difference (Trp vs. placebo) after 3 months” value [3, 8] of the same molecule?
Answer: 1.3

Question: What about the “MMSE, treatment difference (Trp vs. placebo) after 3 months” value [3, 8] of the same molecule?
Answer: 2.0

Question: And the “ADAS-Cog, treatment difference (Trp vs. placebo) after 6 months” value [3, 9]?
Answer: −6.3

Question: And the “ADCS-CGIC, treatment difference (Trp vs. placebo) at 6 months” value [3, 9]?
Answer: 2.9

Question: What about the “Clock-drawing, treatment difference (Trp vs. placebo) after 6 months” value [3, 9] of the same molecule?
Answer: 2.9

Question: And the “DAD, treatment difference (Trp vs. placebo) after 6 months” value [3, 9]?
Answer: 12.8

Question: And the “FAQ, treatment difference (Trp vs. placebo) after 6 months” value [3, 9]?
Answer: −2.0

Question: What about the “MMSE, treatment difference (Trp vs. placebo) after 6 months” value [3, 9] of the same molecule?
Answer: 5.0

Question: What about the “NPI, treatment difference (Trp vs. placebo) after 6 months” value [3, 9] of the same molecule?
Answer: −19

Question: What about the “patients depressed (Cornell Depression Index score of >5) after 6 months of treatment” value ([3]; Trp group (two patients), 6 months) of the same molecule?
Answer: 25%

Question: And the “sleep problems (score of >4 on the Pittsburgh Sleep Quality)” value ([3]; at baseline or at 6 months)?
Answer: No sleep problems

Question: And the “correlation between the increase in Trp plasma levels and the increase in cognitive test scores” value [4]?
Answer: statistically significant correlation

Question: What about the “patients with “unequivocal improvement in blind global assessment”” value [5] of the same molecule?
Answer: six of 29

Question: What about the “benefit in patients with dementia” value (patients with dementia) of the same molecule?
Answer: of no benefit
